# According to US11058713B2, “Treatment and diagnosis of ocular surface disorders” (Advaite LLC., priority 2017, dated 2021):
# Entries after “also recorded” stand apart in the source; their conditions may differ.
# T1: oncostatin M (OSM) (Mus musculus, UniProt P53347)
# T1 construct: In murine NETs, OSM is present in great abundance; endogenous in cells; host or cells: murine neutrophil extracellular traps (NETs)
# T1 sequence (P53347 23-206): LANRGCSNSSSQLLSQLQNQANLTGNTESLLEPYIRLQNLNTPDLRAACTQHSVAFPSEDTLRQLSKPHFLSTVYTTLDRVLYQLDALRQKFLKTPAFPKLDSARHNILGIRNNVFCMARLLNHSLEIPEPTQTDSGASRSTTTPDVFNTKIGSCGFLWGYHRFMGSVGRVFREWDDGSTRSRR
# B1: OSM: OSM recombinant protein applied to mouse corneas (protein, UniProt P53347 25-206, looked up)
# Oncostatin-M: NRGCSNSSSQLLSQLQNQANLTGNTESLLEPYIRLQNLNTPDLRAACTQHSVAFPSEDTLRQLSKPHFLSTVYTTLDRVLYQLDALRQKFLKTPAFPKLDSARHNILGIRNNVFCMARLLNHSLEIPEPTQTDSGASRSTTTPDVFNTKIGSCGFLWGYHRFMGSVGRVFREWDDGSTRSRR
# B2: rNGAL: recombinant NGAL (neutrophil gelatinase-associated lipocalin) (protein, UniProt P80188 21-198, looked up)
# Neutrophil …: QDSTSDLIPAPPLSKVPLQQNFQDNQFQGKWYVVGLAGNAILREDKDPQKMYATIYELKEDKSYNVTSVLFRKKKCDYWIRTFVPGCQPGEFTLGNIKSYPGLTSYLVRVVSTNYNQHAMVFFKKVSQNREYFKITLYGRTKELTSELKENFIRFSKSLGLPENHIVFPVPIDQCIDG
# Tests used:
# stimulated neutrophils = assay: Stimulated neutrophils: inflammatory products (green staining strands), photographs; assay type: cell-based
# [1] = system: neutrophil inflammatory products; assay: Kinetic assay of neutrophil inflammatory products, stimulation by 1 nM PMA; assay type: cell-based; conditions: FIGS. 9A and 9B
# [2] = system: human corneal epithelial cells; assay: Scratch wound healing of confluent corneal epithelial cells; assay type: cell-based; conditions: anticoagulant dose heparin 1000 and 10,000 IU/ml; versus RPMI control and 100 IU/ml
# Description: In this experiment human corneal epithelial cells were grown to confluence and scratch wounds were made.
# [3] = system: human corneal epithelial cells; assay: Cytotoxicity assay (LDH); assay type: cell-based
# murine corneas = assay: Murine model of neutrophil product (NETs) induced corneal disease; assay type: in vivo
# Description: Neutrophil products (NETs) when applied to corneal surface induced epithelial disease and fluorescein staining. […] Protein levels of inflammatory cytokines were also determined (IL-lb and IP-10) using a Magpix platform.
# Whether reducing OSM levels in naive NETs using heparin or OSM NAb abrogates NETs induced epitheliopathy in murine corneas was investigated. Naive NETs, heparinized NETs and OSM NAb incubated NETs was applied to naïve murine corneas for five consecutive days. […] At Day 5, corneas were excised and abundance of inflammatory cytokines (IL-1β, IL-6 and IP-10) were determined in lysates. […] FIG. 16.
# mouse corneas = assay: Recombinant OSM protein induced corneal epithelial disease; assay type: in vivo; conditions: for corneal fluorescein staining at Day 5: application of OSM, OSM incubated with heparin or OSM incubated with OSM NAb
# From the text: Excessive amounts of OSM can cause corneal epithelial disease similar to that seen in DED patients. […] OSM inhibitors used can be selected from neutralizing antibodies, neutralizing peptides and small molecules and other gene based approaches. These OSM inhibitors can be used independently as therapeutic proteins/peptides/small molecules for DED treatment.
# In addition, whether OSM recombinant protein can produce epitheliopathy similar to NETs and whether reducing OSM levels using heparin or OSM NAb abrogates that effect was also investigated. […] These experiments indicate that NETs cause corneal epitheliopathy possibly due to presence of OSM and epitheliopathy can be prevented with heparin. To test this theory, a patient with oGVHD who had corneal and conjunctival epitheliopathy was treated with heparin eye drop (100 IU/mL) three times a day for four weeks.
# [4] = system: mucocellular aggregates from a patient with severe tear deficient DED; assay: Ex vivo dissolution of mucocellular aggregates (Hematoxylin-Eosin and Sytox Green); design: species or system human; conditions: sub-anticoagulant heparin 100 IU/ml; substantially intact with culture media (RPMI) only
# Description: The extracellular structures (green strands) were dissolved when treated with sub-anticoagulant heparin (100 IU/ml), but remained substantially intact when treated with only the culture media (RPMI).
# oncostatin M (OSM) [5] = assay: Recombinant OSM protein levels after incubation with heparin or NAb; assay type: binding; conditions: FIG. 15
# Description: (§1) The molecular component of Neutrophil Extracellular Traps (NETs) that may cause epitheliopathy was investigated. […] OSM was present in abundance in mucocellular aggregates (MCA) collected from definite oGVHD patients. OSM is a heparin binding protein, therefore incubation with heparin or Neutralizing antibody (NAb) reduced recombinant OSM protein levels (FIG. 15).
# oncostatin M (OSM) [6] = biological target: T1, oncostatin M (OSM); assay: OSM levels in murine NETs; assay type: binding; conditions: 614.67±95.73 pg/mL without heparin
# Description: as §1
# [7] = system: immortalized meibomian gland epithelial cells; assay: Meibomian gland cell differentiation, lipid accumulation by LipidTOX staining; assay type: cell-based, human
# From the text: Meibomian gland disease is a conspicuous feature of oGVHD. As compared to normal meibomian gland, patients with oGVHD have extensive atrophy or truncation of meibomian glands. […] To determine the effect of NETs on meibomian glands, immortalized meibomian gland epithelial cells were cultivated and differentiated. Lipid accumulation was detected using LipidTOX staining. […] The reduction in lipid accumulation with NETs was abrogated with addition of NGAL NAb (21.21±0.83 A.U). […] The reduction of lipid accumulation with rNGAL was abrogated with addition of NGAL NAb (17.82±0.43 A.U) and heparin (15.66±1.72 A.U).
# human MG cells = assay: Meibomian gland cell proliferation; assay type: cell-based; conditions: KSFM medium with rNGAL; reduction with rNGAL on addition of NGAL NAb or heparin
# From the text: Next, the effect of NGAL on proliferation of human MG cells was investigated. […] FIG. 20. […] The reduction of MG cell proliferation with rNGAL was abrogated with addition of NGAL NAb and heparin.
# [8] = Heparin addition to NETs, protein level, Magpix platform
# [9] = DFM medium with rNGAL, rNGAL plus NGAL NAb or rNGAL plus heparin, DFM alone 24.92±1.21
molecule,measurement,setting,value
Enoxaparin,neutrophil inflammatory products (green staining strands),"stimulated neutrophils; Enoxaparin 10, 20, 40 and 80 μg/mL, FIG. 6",dose dependent fashion
same,inflammatory strands of neutrophils,stimulated neutrophils; Enoxaparin at 80 μg/mL,almost completely
same,amount of neutrophil inflammatory products produced with stimulation by 1 nM PMA,[1],dose dependent reduction; also recorded: dose dependent manner
heparin,neutrophil inflammatory products (green staining strands),"stimulated neutrophils; heparin 0.01, 0.1, 1, 10 and 100 IU/mL, FIG. 5",dose dependent fashion
same,amount of inflammatory strands of neutrophils,stimulated neutrophils; heparin at 100 IU/ml,almost completely
same,amount of neutrophil inflammatory products produced with stimulation by 1 nM PMA,[1],dose dependent reduction; also recorded: dose dependent manner
same,Epithelial cell healing (scratch wounds),[2],significantly delayed
same,LDH,"[3]; anticoagulant dose heparin 1000 and 10,000 IU/ml, versus RPMI control and 100 IU/ml",significantly higher
same,human corneal epithelial cell cytotoxicity,"[3]; anticoagulant dose of heparin (1000 and 10,000 IU/ml)",causes human corneal epithelial cell cytotoxicity
same,human corneal epithelial cell cytotoxicity,[3]; sub-anticoagulant dose of heparin (100 IU/ml),does not cause cytotoxicity
same,epithelial disease and fluorescein staining,murine corneas; Heparin (100 IU/ml) added to NETs applied to corneal surface,significantly reduced
same,corneal abundance of IL-lb,murine corneas; [8],significantly reduced
same,corneal abundance of IP-10,murine corneas; [8],significantly reduced
same,corneal fluorescein staining at Day 5,"murine corneas; naive NETs, heparinized NETs or OSM NAb incubated NETs applied to naïve murine corneas for five consecutive days",0.80±0.49
same,corneal fluorescein staining at Day 5,mouse corneas,1.20±0.20
same,corneal fluorescein staining induced by OSM,"mouse corneas; heparin 100 IU/ml or neutralizing antibody added to recombinant OSM, FIG. 13",significantly reduced
same,extracellular structures (green strands) of mucocellular aggregates,[4],dissolved
same,recombinant OSM protein levels,oncostatin M (OSM) [5],reduced
same,OSM levels in heparinized NETs,oncostatin M (OSM) [6],19.95 ± 0.00 pg/mL
same,fluorescence intensity of LipidTox Green neutral lipid stain (accumulation of lipids),"[7]; DFM medium with NETs, heparinized NETs or NETs plus NGAL NAb, DFM alone 24.92±1.21, KSFM 6.93±0.57",33.98±2.18 A.U
same,fluorescence intensity of LipidTox Green neutral lipid stain (accumulation of lipids),[7]; [9],15.66±1.72 A.U
same,MG cell proliferation,human MG cells,abrogated
B1,corneal fluorescein staining at Day 5,mouse corneas,8.75±0.48
B2,fluorescence intensity of LipidTox Green neutral lipid stain (accumulation of lipids),[7]; [9],10.88±0.35 A.U
same,MG cell proliferation,human MG cells,significantly decreased
